These results are taken from patent US20260174739A1 (priority 2022, published 2026).

Series [1] concerns the target human DAT (Homo sapiens, UniProt Q01959). Put plainly: DAT transporter inhibitory activity test (neurotransmitter transporter uptake assay kit). Type of series: cell-based. As to the method:
(§1) Transporter inhibition of human DAT and NET expressed in HEK-293 cells was assessed using a neurotransmitter transporter uptake assay kit. The assay was performed as described in the kit instructions, using centanafadine as a positive control. The specific procedures were as follows:
DAT stably transfected culture: The DAT-HEK cell line was cultured in DMEM medium containing 10% fetal bovine serum and 0.2 mg/mL hygromycin B at 37° C. with 5% carbon dioxide.
DAT stably transfected cell passage: the old medium was removed, and the cells were washed once with PBS; 1 mL of TrypLE™ Express solution was then added, and the cells were incubated at 37° C. for about 2 min. When the cells were detached from the bottom of the dish, about 5 mL of complete medium pre-heated at 37° C. was added. The cell suspension was gently pipetted to separate the aggregated cells. The cell suspension was transferred to a sterile centrifuge tube and centrifuged at 1000 rpm for 5 min. In order to maintain the physiological activity of the cells, the experimental cell confluence was controlled at about 80%.
• a) After overnight transfection of NET cells, the cells were digested with trypsin, resuspended with DMEM+10% Dialyzed FBS medium, seeded into a 384-well plate at 20000 cells/well, and incubated overnight. […] After centrifuging, the plate was incubated at 37° C. for 30 min. • e) A detection reagent was prepared using 1×HBSS, and 16 μL of the detection reagent was added to each well. […] Curve fitting and IC50 calculation were performed using GraphPad Prism software nonlinear regression method.

The target in series [2] is human NET (Homo sapiens, UniProt P23975). Nature of the series: NET transporter inhibitory activity test (neurotransmitter transporter uptake assay kit). Type of series: cell-based. How it is done: as §1
Sequence of human NET (P23975 whole entry): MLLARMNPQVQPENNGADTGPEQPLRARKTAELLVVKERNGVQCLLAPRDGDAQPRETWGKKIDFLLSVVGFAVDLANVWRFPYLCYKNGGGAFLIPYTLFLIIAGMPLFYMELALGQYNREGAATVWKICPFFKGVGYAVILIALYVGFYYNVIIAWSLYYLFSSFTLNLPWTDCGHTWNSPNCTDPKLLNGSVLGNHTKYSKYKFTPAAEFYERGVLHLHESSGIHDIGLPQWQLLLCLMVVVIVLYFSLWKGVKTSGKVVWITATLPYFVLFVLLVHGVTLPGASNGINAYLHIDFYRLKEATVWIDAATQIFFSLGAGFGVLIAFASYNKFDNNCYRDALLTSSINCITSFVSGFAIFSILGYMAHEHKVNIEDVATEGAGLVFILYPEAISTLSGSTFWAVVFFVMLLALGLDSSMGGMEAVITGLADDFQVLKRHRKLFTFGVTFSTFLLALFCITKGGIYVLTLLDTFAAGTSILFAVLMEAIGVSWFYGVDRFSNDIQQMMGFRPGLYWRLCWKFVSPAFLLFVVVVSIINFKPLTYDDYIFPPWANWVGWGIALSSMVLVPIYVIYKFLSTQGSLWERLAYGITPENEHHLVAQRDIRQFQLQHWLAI
First day cell plating: HEK 293T cells were digested with trypsin, centrifuged, resuspended with a medium, counted, and seeded into a 6 cm culture dish at a density of 3×10^6 cells/well.
Second day cell transfection: HEK 293T cells were subjected to medium exchange, and then A, B tubes were prepared for NET-pcDNA5/FRT plasmid to be transfected. 200 μL of Opti-MEM was added to tube A, and 10 μL of Lipofectamine™ 3000 was added. The mixture was mixed well. 200 μL of Opti-MEM was added to tube B, and 5 μg of NET-pcDNA5/FRT plasmid was added. The mixture was mixed well, and then 10 μL of P3000™ was added to tube B. The mixture was mixed well (plasmid to transfection reagent ratio 1 μg:2 μL). The diluted solution of tube A was added to the diluted solution of tube B. The mixture was mixed well, and incubated at room temperature for 15 min. Finally, the mixture was gently added to the cells that had been subjected to medium exchange, gently shaken to mix, and then incubated overnight in an incubator at 37° C. with a carbon dioxide concentration of 5%. The cells were used for compound functional activity assays 18-20 h after transfection.
• a) After overnight transfection of NET cells, the cells were digested with trypsin, resuspended with DMEM+10% Dialyzed FBS medium, seeded into a 384-well plate at 20000 cells/well, and incubated overnight. Stably transfected DAT cells were digested with trypsin, resuspended with DMEM+10% Dialyzed FBS medium, seeded into a 384-well plate at 2500 cells/well, and incubated overnight. • b) 1× Assay buffer was prepared according to the kit instruction for later use; the positive compound and the test compound were serially diluted with DMSO, and then diluted to 2× with 1× assay buffer. • c) The medium was removed from the 384-well plate by centrifugation. • d) 16 μL of the compound prepared in step b) was added to corresponding experimental wells, wherein an initial concentration of 2× positive control compound was added to the positive control well, and 0.2% DMSO buffer was added to the negative control well. After centrifuging, the plate was incubated at 37° C. for 30 min. • e) A detection reagent was prepared using 1×HBSS, and 16 μL of the detection reagent was added to each well. After centrifuging, the plate was incubated at 37° C. for 60 min. • f) After incubation, the reading at 510 nm under the excitation of the detection wavelength of 425 nm was measured using a microplate reader. Curve fitting and IC50 calculation were performed using GraphPad Prism software nonlinear regression method.

Series [3] concerns the target human SERT (Homo sapiens, UniProt P31645). Put plainly: Inhibitory activity assay against 5-HT transporter (neurotransmitter transporter uptake assay kit). Conditions: HEK-293 cells overexpressing human SERT; read-out: 5-HTT (IC50). Type of series: cell-based. How it is done: In HEK-293 cells overexpressing human SERT, the transporter inhibitory effect of the test compound on human SERT was assayed using a Neurotransmitter transporter uptake assay kit (Molecular devices).

Series [4] is described as follows: Human liver microsome assay (metabolic stability). The series is classed as in vitro ADME. Conditions: pH 7.4, human liver microsomes 0.2 mg/mL, 1 μM test drug, NADPH, 37° C.; for half-life at 1 μM: read-out: Half-life (t1/2, min); for CLint scaled at 1 μM: read-out: Intrinsic clearance (Clint, mL/min/kg). How it is done:
Control and reagent: NADPH, magnesium chloride, testosterone, phosphate buffer, etc. were supplied by Dalian Meilun Biotech Co., Ltd., etc.
Liver microsome: human liver microsomes were supplied by Corning.
Experimental step: the liver microsome incubations were performed in 96-well plates, each incubation system having a volume of 200 μL, in a medium of 0.1 M phosphate buffer (pH 7.4), including liver microsomes at a final concentration of 0.2 mg/mL, 1 μM of the test drug, 3.0 mM MgCl2, 0.01% DMSO, 0.5% acetonitrile, and 2.0 mM NADPH. The incubation system described above without NADPH was pre-incubated at 37° C. for 5 min using a rotary water bath constant temperature oscillator. NADPH was added to initiate the reaction. At 0, 5, 15, 30, and 60 min, 20 μL of the sample was taken out from the incubation system after mixing well and added to 200 μL of acetonitrile containing an internal standard to terminate the reaction. Under the same conditions, 1 μM testosterone was used as a positive control to assess the reliability of the reaction system. For the negative control, phosphate buffer was used instead of NADPH, and all other incubation conditions remained the same. At 60 min, 20 μL of the sample was taken out after mixing well and added to 200 μL of termination solution containing an internal standard to terminate the reaction.
Sample analysis: After treatments such as precipitated protein extraction with an organic solvent, the incubated sample was analyzed using liquid chromatography-tandem mass spectrometry (LC-MS/MS). The concentrations of the test drug or the positive control drug in the sample were semi-quantified. The concentration in the sample was expressed using the ratio of the analyte peak area to the internal standard peak area.
Data processing and analysis: A standard curve of the In residual rate of the drug in the incubation system with respect to the incubation time was plotted by using Excel software, linear regression was performed to obtain a slope k, and the half-life T1/2 (min) and the intrinsic clearance CLint (mL/min/kg) were calculated according to the following formula: […]

Series [5] is described as follows: In vivo metabolism (pharmacokinetic) experiment in mice. Also noted: species or system male ICR mice. To be noted: mouse, male ICR mice; for bioavailability: oral 10 mg/kg vs iv 2.5 mg/kg, read-out: F (%); for AUC(0-inf) / Cmax / half-life: oral 10 mg/kg, plasma; for AUC(0-inf): read-out: AUC0-inf(po); for Cmax: read-out: Cmax (po); for half-life: read-out: T1/2 (po) (converted). As to the method: Animal: male ICR mice. The animals were randomly assigned to treatment groups and fasted for 12 h prior to dosing.
Drug: the compound of the present disclosure was dissolved in a vehicle (5% DMSO+5% Solutol HS15+90% saline). For intravenous (iv) administration, the dose was 2.5 mg/kg with a dosing volume of 5 mL/kg; for oral (po) administration, the dose was 10 mg/kg with a dosing volume of 10 mL/kg body weight. Sample collection and bioanalysis: blood was collected from the orbit of the mice and added into EP tubes containing heparin sodium at 0.083, 0.25, 0.5, 1, 2, 4, 6, and 8 h (n=3 for each time point). Immediately after blood collection, the mice were euthanized by cervical dislocation, and mouse brains were collected at the corresponding time points. All samples were promptly collected, snap-frozen, and stored at −70° C. for later use. Plasma samples were obtained by centrifugation of whole blood. 10 μL of plasma was mixed with 190 μL of internal standard solution (20 ng/ml in acetonitrile containing 0.1% formic acid). After mixing, the samples were centrifuged at 13000 rpm for 10 min, and 120 μL of the supernatant was separately collected. Depending on the sensitivity of the compound, 0.5-10 μL of the supernatant was taken for drug analysis using the appropriate liquid chromatography-tandem mass spectrometry (LC-MS/MS). Each analyte was calibrated and identified using standards. According to brain tissue: the extract (50% acetonitrile/water) at a ratio of 1 g:8 mL was homogenized for 2 min using five 3 mm magnetic beads in an OMNI Bead Ruptor 24 Elite homogenizer at 3.2 m/s and centrifuged at 4° C. and 3000 g for 3 min. 50 μL of the supernatant was mixed with 200 μL of internal standard solution (20 ng/mL in 80% acetonitrile/water). After mixing, the samples were centrifuged at 13,000 rpm for 10 min, and 120 μL of the supernatant was separately collected. Depending on the sensitivity of the compound, 0.5-10 μL of the supernatant was taken for drug analysis using the appropriate LC-MS/MS method. Each analyte was calibrated and identified using standards.
Data analysis: drug concentrations below the lower limit of quantification (LLOQ) were considered zero. Pharmacokinetic parameters were analyzed using PK Solver with a non-compartmental, bolus injection or extravascular input analysis models. Data points below the LLOQ were excluded to improve the efficacy of t1/2 calculation.

Series [6] concerns male C57 mice. Put plainly: Forced swim test. The series is classed as in vivo. To be noted: intraperitoneal injection, test 0.5 h after dosing, motionless time in last 4 min. As to the method: Drug: the compound of the present disclosure was first uniformly mixed with 5% DMSO and 5% Solutol® HS 15. hysiological saline was then added to make up 90% of the final volume. The mixture was prepared at an appropriate concentration immediately before use.
Animal: male C57 mice, about 22 g. The animals were randomly divided into a blank control group and test drug groups, 8 animals per group, and mice in each group were administered either the vehicle or the test compound via intraperitoneal injection.
Experimental steps: the mice were subjected to forced swim test 0.5 h after dosing. The water level in the forced swim device was 45 cm, and the water temperature was 25° C. The mice were placed in an experimental room to adapt to the environment for 1 h before the experiment began. When the experiment began, the mice were placed in the device for 6 min, and the whole process was recorded by a camera. Only the motionless time of the mice in the last 4 min was counted when data were analyzed.

Setting [7] is: DAT stably transfected HEK cells, read-out: DAT (IC50).
Where [8] appears, read: NET transiently transfected HEK 293T cells, read-out: NET (IC50).

Structures can show the parent of a compound that is named as a salt. Where two headings read alike, the source gives them in different places. Some results are limits rather than exact numbers.

Sequence of human DAT (Q01959 whole entry): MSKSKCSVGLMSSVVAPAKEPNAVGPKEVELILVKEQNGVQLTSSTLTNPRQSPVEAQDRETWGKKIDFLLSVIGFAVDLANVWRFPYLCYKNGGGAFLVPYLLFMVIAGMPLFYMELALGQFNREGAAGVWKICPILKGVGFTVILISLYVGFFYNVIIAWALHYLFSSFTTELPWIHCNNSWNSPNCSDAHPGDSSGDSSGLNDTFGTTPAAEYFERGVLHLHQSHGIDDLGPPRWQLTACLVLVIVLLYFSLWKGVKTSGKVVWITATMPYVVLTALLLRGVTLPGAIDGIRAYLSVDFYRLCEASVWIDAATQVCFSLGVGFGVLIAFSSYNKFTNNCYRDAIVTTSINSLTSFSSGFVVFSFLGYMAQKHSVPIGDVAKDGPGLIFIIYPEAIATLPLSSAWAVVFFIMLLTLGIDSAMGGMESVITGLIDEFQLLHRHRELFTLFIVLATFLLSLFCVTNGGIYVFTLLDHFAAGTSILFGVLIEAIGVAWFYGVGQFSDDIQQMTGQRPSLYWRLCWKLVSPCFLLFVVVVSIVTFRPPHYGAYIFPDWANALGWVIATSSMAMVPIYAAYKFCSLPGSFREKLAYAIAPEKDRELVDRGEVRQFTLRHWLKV
Sequence of human SERT (P31645 whole entry): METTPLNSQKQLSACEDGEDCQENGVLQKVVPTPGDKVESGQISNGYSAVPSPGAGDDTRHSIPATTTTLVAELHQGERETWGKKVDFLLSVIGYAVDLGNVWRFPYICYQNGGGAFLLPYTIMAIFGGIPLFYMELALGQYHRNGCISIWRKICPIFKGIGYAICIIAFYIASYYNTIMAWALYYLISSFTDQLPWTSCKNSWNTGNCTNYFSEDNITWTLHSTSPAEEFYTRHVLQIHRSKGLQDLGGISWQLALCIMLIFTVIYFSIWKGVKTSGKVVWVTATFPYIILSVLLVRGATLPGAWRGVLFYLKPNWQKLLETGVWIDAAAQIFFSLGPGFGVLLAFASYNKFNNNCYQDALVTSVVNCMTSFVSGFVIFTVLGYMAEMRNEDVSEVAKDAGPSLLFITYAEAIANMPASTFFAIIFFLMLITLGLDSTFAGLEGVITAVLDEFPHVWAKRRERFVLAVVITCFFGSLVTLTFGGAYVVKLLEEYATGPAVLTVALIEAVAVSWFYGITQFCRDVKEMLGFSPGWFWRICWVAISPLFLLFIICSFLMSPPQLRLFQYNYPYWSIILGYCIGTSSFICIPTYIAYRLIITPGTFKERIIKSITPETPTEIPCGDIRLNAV

For `Nc1nc2c(s1)CC(N)(c1cccc(F)c1)CC2` (racemic) [rac-A10, 6-(3-fluorophenyl)-4,5,6,7-tetrahydrobenzothiazole-2,6-diamine], the IC50 in series [1] (setting [7]) is 6600 nM; in series [2], 4200 nM; in series [3], 1300 nM.
On to `c1ccc2cc([C@]34CNC[C@H]3C4)ccc2c1` [Centanafadine, centanafadine, reference compound], for which the IC50 in series [1] came out at 80 nM; in series [2], 30 nM.
`NC1(c2ccccc2)CCc2ncsc2C1` (racemic) [rac-A14, 6-phenyl-4,5,6,7-tetrahydrobenzothiazol-6-amine]: the half-life at 1 μM in series [4] is more than 120 min. For the same molecule, in series [5] (male, ICR, po, 10 mg/kg), the bioavailability amounted to 105%, the AUC(0-inf) was 2900 ng·h/mL, the Cmax is 1430 ng/mL and the half-life is 1.5 h. Besides, the “Effective dose” value in series [6] was 3 mg/kg.
Consider `NC1(c2ccccc2)CCCc2sccc21` (racemic) [rac-A16, 4-phenyl-4,5,6,7-tetrahydrobenzothiophen-4-amine], for which, in series [4], the half-life at 1 μM came to 42 min and the CLint scaled at 1 μM worked out at 95.5 mL/min/kg. Besides, in series [5], the bioavailability was 41%, the AUC(0-inf) is 501 ng·h/mL, the Cmax came out at 252 ng/mL and the half-life is 1.76 h. Further, in series [6], the “Effective dose” value is recorded as 3 mg/kg.
Regarding `Nc1nc2c(s1)C[C@](c1ccccc1)(N1CCCC1)CC2` [R-A50], the IC50 in series [2] (setting [8]) is 200 nM.
Turning to `CNC1(c2ccccc2)CCCc2sc(N)nc21` (racemic) [rac-A38, N^4-methyl-4-phenyl-4,5,6,7-tetrahydrobenzothiazole-2,4-diamine], in series [4], the half-life at 1 μM amounted to 98 min and the CLint scaled at 1 μM turned out to be 41.3 mL/min/kg. Also, in series [5] (male, ICR, po, 10 mg/kg), the bioavailability was determined as 71%, the AUC(0-inf) came to 1620 ng·h/mL, the Cmax came to 360 ng/mL and the half-life was 1.8 h. Also, the “Effective dose” value in series [6] came out at 3 mg/kg.
Regarding `CNC1(c2ccc(C(F)(F)F)cc2)CCc2nc(N)sc2C1` (racemic) [rac-A96, 6-(4-trifluoromethylphenyl)-N^6-methyl-4,5,6,7-tetrahydrobenzothiazole-2,6-diamine hydrobromide], the IC50 in series [2] was 14000 nM.
As to `NC1(c2ccccc2)CCc2[nH]ncc2C1` (racemic) [rac-A65, 5-phenyl-4,5,6,7-tetrahydro-1H-indazol-5-amine], the figures for the concentration for half-maximal inhibition (IC50) in series [2] and in series [3] were 7000 nM and 1900 nM, respectively.
Molecule `Nc1nc2c(s1)CC(NCC1CC1)(c1ccccc1)CC2` (racemic) [rac-A67, 6-phenyl-N^6-(cyclopropylmethyl)-4,5,6,7-tetrahydrobenzothiazole-2,6-diamine] returned an IC50 in series [2] of 3000 nM.
`c1ccc([C@@]2(N3CCCC3)CCc3[nH]ncc3C2)cc1` [R-A12]: the IC50 in series [1] (setting [7]) stood at 2000 nM; in series [2] (setting [8]) it was 3800 nM.
